From patent publication US20040009947A1, “Compounds and methods for enhancing delivery of free polynucleotide” (priority 1998, published 2004) come the findings set out here.

Molecules are shown by their SMILES. “Also recorded” adds a separate entry of the source. Counter-ions that a name gives are not always drawn. Where only a bound is given, the exact number is not on record here.

The test system of data set [1] is macaque respiratory tissues. The data set is described as follows: Bronchoscopic administration of plasmid +/- ATA to macaque lung, luciferase assay and histology. Type of data set: in vivo. The settings on record: 48 hours after treatment, H&E. On the procedure: Extending the experiment from murine to nonhuman primate respiratory tissues, the activity of ‘free’ plasmid DNA +/− ATA in macaque respiratory tissues using male rhesus macaques was tested. Initially, the lavage fluid is tested for DNAse activity +/− ATA by incubation with plasmid after which gel electrophoresis is performed as described above with murine lung lavage samples. After a 70 day quarantine, the animals are treated using three general techniques. For direct administration of […] to pulmonary parenchyma, macaques are anesthetized (ketamine, veterinarian assisted) and a pediatric bronchoscope will be passed per nasum with direct visualization of the bronchial tree. Typically, plasmid preparations (3 ml/Kg macaque weight) or related treatments (plasmid/ATA mixtures etc.) are instilled directly via the bronchoscope into the right lower lobe. The left upper lobe of the same macaque is used as an internal control. […]
As described above, relative luciferase activity is determined using the Enhanced Luciferase Assay Kit and a Monolight 2010 luminometer (both from Analytical Luminescence Laboratories, San Diego, Calif.). […] Luciferase light emissions from 31 microliters of the lysate are measured over a 10 second period, and results are expressed as a function of total protein, total tissue mass, and total DNA dose.

Data set [2] has as its system NIH3T3. The data set is described as follows: Transfection of cultured cells with DNA/DOTAP +/- ATA, luciferase assay. Type of data set: cell-based. The settings on record: very highest doses 80 μg/ml, 40 μg/ml, 10 μg/ml. On the procedure:
NIH3T3 (ATCC CRL 1658) were grown in Dulbecco's Modified Eagle's Medium and 10% calf serum. NIH3T3 were also plated at a density of 5×10^4 cells/ml in 24 well plates 24 hours prior to transfection and cells were transfected as subconfluent monolayer.
The sequential addition of appropriate amounts of serum-free DMEM, plasmid DNA ([…]), ATA in serum-free DEM and filter sterilized (see below for doses), and DOTAP (DOTAP:DNA formulation of 5 μg: 1 μg) were pippetted into a 2 ml Eppendorf tube to give a total volume of […] and mixed with a vortex mixer. A […] aliquot of the resultant transfection complex was added to each well of the cells above after the cell media had been aspirated off. The cells were incubated for 2 hours at 37° C. At the two hour time point, the mixture was removed and one ml of culture media was added to each well. […]
(§1) Relative luciferase activity was determined using the Enhanced Luciferase Assay Kit and Monolight 2010 luminometer (Analytical Luminescence Laboratories, San Diego, Calif.). […] For In vitro experiments, luciferase light emissions from 20 μl of the cell lysate were measured over a 10 second period, and results expressed as a function of the total lysate volume. For in vivo experiments, luciferase light emissions from […] of the lysate were measured over a 10 second period, and results expressed as a function of the total lysate volume.

Data set [3] concerns Macaque Skin. As to the kind of experiment: Intradermal injection of luciferase DNA into macaque skin +/- ATA. Type of data set: in vivo. The settings on record: 100 μg plasmid and 50 μg ATA intradermal versus plasmid alone. On the procedure:
To further confirm the utility of nuclease inhibitors in combination with direct DNA delivery, the activity of free plasmid DNA +/− ATA in skin tissues was tested. The plasmid and animal protocols were identical to those described above. Intradermal injections were performed by injecting 100 μl solutions using 30 gauge needle.
The experiment was further extended from murine to primate, testing direct intradermal injection on macaques. The control solution was identical to that described for the mice and rat protocols. The test solution contained 100 μg of pND21ux plasmid and 50 μg of ATA in 100 μl water. Ten macaques were included in the control group and twelve were included in the test group.

The subject of data set [4] is 16HBE14o. The data set is described as follows: Transfection of cultured cells with DNA/DOTAP +/- ATA, luciferase assay. The class given is cell-based, human. The settings on record: very highest doses 80 μg/ml, 40 μg/ml, 10 μg/ml. On the procedure:
The human respiratory epithelial cell line, 16HBE14o (Dieter Grunert, UCSF) was cultured on flasks coated with fibronectin (Collaborative Research-Bectin Dickinson), vitrogen (Collagen Corp), basal media (Biofluids, Inc.) and bovine serum albumen (Biofluids, Inc.) as previously described [Gruenert, 1990 #7; Cozens, 1994 #8]. Cells were cultured on twenty four well tissue culture plates (Corning) coated with the above mixture. Culture media was Eagle's modified essential medium (EM) supplemented with 10% fetal bovine serum. 16HBE 14o cells were plated at a density of 5×10^4 cells/ml 24 hours prior to transfection and cells were transfected as subconfluent monolayer. […]
as §1

Data set [5] relates to mouse lung. The data set is described as follows: Intratracheal plasmid transfection of mouse lung, luciferase reporter assay of lung homogenate. The class given is in vivo. The settings on record: for Level of reporter protein expression after intratracheal administration of plasmid, enhancement by co-administration: intratracheal plasmid with DNAse inhibitor, mouse lung. On the technique in general: A reporter such as luciferase makes a cellular process visible.

Data set [6] can be described thus: Toxicity of intratracheal ATA/plasmid in mice (lethality, health assessment, lung histology). Type of data set: in vivo, mouse. The settings on record: for mice died: within 8 to 24 hours, pilot experiments. On the procedure: Dose-response experiments can be used to efficacy, toxicity, and effective dose of a particular enhancing agent or polynucleotide preparation. […] Histologic evaluation of treated lung tissue was subsequently performed. […] ATA is often employed for inhibition of cultured cell apoptosis, but relatively few publications describe in vivo applications. In vivo dosing employed in published reports ranges from 4 micrograms administered to the […] cerebral ventricle of gerbils to 10 mg/kg/hour continuous infusion in a hamster carotid stenosis model Based on this literature, a dose range from 0.1 mg/kg to 8 mg/kg ATA administered with 100 micrograms of plasmid was tested. […] Subsequent histologic examination was performed using lung tissue obtained from mice treated with up to 5 mg/kg ATA.
To obtain information about toxicity, mouse lung tissue was treated with ATA +/− plasmid and routine histologic analyses were performed. […] Therefore, intratracheal instillation of plasmid +/− ATA was performed, and two days later the treated tissues were histologically analyzed after inflation and fixation in formalin followed by routine hematoxylin and eosin staining in paraffin sections. Treatment groups included untreated controls, 100 μl of water for injection (WFI), 100 μg of pND2Lux diluted in WFI, and plasmid with […] body mass diluted in WFI. The images shown in FIG. 9 are representative photomicroscopic fields that include both conducting airway and pulmonary parenchyma.

In the case of `O=C(O)C1=CC(=C(c2ccc(O)c(C(=O)O)c2)c2ccc(O)c(C(=O)O)c2)C=CC1=O` [ATA, aurin tricarboxylic acid], the “Histologically apparent acute toxicity” value in data set [1] is recorded as “lack of histologically apparent acute toxicity”. Further, the Toxicity to cells entry was “toxic and killed cells” in data set [2]; “toxic and killed cells” in data set [4]. Further, the “enhancement of reporter gene expression, test group on average” value in data set [3] was 11 fold. Besides, in data set [5] (doses of ATA virtually nontoxic to the lung), the “increase over free DNA transfections” value worked out at 57%. Further, the “lethality due to the ATA” value in data set [6] (2 mg/kg ATA or lower doses, during the 48 hours after treatment) was “no lethality”. Further, the mice died came to 50% in data set [6] (6 mg/kg ATA intratracheal with 100 micrograms plasmid) and 100% in data set [6] (8 mg/kg ATA intratracheal with 100 micrograms plasmid). Besides, the “pulmonary dose associated with significant mortality” value in data set [6] (intratracheal, mouse) is on record as greater than 2 μg/g body weight. The “Lung histology (H&E) after intratracheal plasmid +/- ATA” value in data set [6] (mouse lung, two days after treatment, plasmid with 0.5 or 6 mg ATA/g body mass) is “indistinguishable; also recorded: virtually nontoxic to the lung; also recorded: No significant histologic alterations”. For the same compound, in data set [6] (up to 48 hours after transfection), the “Health assessment of mice after transfection” value is “healthy with no physical or behavioral side effects observed”.
In the case of `O=C(O)CN(CCN(CC(=O)O)CC(=O)O)CC(=O)O` [EDTA, ethylenediaminetetraacetic acid], the “Level of reporter protein expression after intratracheal administration of plasmid, enhancement by co-administration” value in data set [5] was “Neither EDTA nor citrate significantly enhanced the level of expression”.
On to `O=C(O)CC(O)(CC(=O)O)C(=O)O` [sodium citrate], for which the “Level of reporter protein expression after intratracheal administration of plasmid, enhancement by co-administration” value in data set [5] (listed as citrate) is listed as “Neither EDTA nor citrate significantly enhanced the level of expression”.
